Marks after values point to notes of the source that are not given here.
Key:
[1] = tested on: apomorphine-induced emesis; assay: Emetic challenge study (apomorphine-induced emesis) in beagle dogs; format: in vivo, beagle dog; settings: 3.0 mg/kg oral, apomorphine 0.1 mg/kg iv 2 hours later, five dogs; APO control 28
Experimental: Over the five (5) weeks of the study, each animal receives each of the treatments, but only one per week. The purpose of this study is to determine if tradipitant suppresses apomorphine-induced emesis.
The mid dose of tradipitant is the approximate half-log interval between the low and high doses.
All animals are dosed over a period of five (5) weeks, with each dog receiving one of five different treatments on each day of dosing.
All dogs are fasted overnight prior to each treatment day and then fed approximately one (1) hour after oral dosing (approximately one (1) hour prior to administration of apomorphine). Individual doses are adjusted weekly for changes in body weight.
The dose regimen consists of a 5×5 Latin square design, in which each subject receives 1 dose or dose combination per week (6 day washout) as shown in Table 3 below.

[2] = molecular target: T1, NK-1 receptor (Meriones unguiculatus, UniProt Q5DUB1); assay: NK-1 agonist (GR73632, icv)-induced foot-tapping behavior in gerbils; format: in vivo; settings: gerbil, 1 mg/kg
T1 construct: centrally acting NK-1 receptor antagonist in vivo in the gerbil; from tissue; host or cells: brain of living Mongolian gerbils
Experimental: Male Mongolian gerbils (Harlan Sprague Dawley, Indianapolis, IN) weighing 26 to 40 grams are administered the selective neurokinin-1 receptor agonist GR73632 (3 pmol) via direct, vertical, free-hand intracerebroventricular (icy) injection to a depth of 4.5 mm below bregma with a cuffed 27-gauge needle attached to a 50 μl Hamilton syringe. Immediately after injection, animals are placed individually into isolated chambers with pressure-sensitive velocimeter platform floors (San Diego Instruments acoustic startle apparatus) that detect and quantify vibration. The San Diego Instruments “SR” DOS-based computer program is used on a PC to record the number of foot-taps over the following 6 to 10 minutes, beginning 30 seconds after the floor is lightly tapped. […] The total number and average intensity of events over the duration is determined. Total number of taps is analyzed with one-way ANOVA and post-hoc Dunnett's test using JMP statistical software.
A dose-response curve (with doses of 0.3, 1, 3 and 10 pmols, icy) is initially generated with the NK-1 agonist GR73632.
NK-1 antagonists are tested for their ability to attenuate GR73632-induced foot tapping. NK-1 antagonists are administered (po) via oral feeding tube at doses and time points specified in each experiment. […]
NK-1 antagonists are administered at multiple doses (at least 3; one dose per animal) and response to GR73632 is measured. […]

[3] = tested on: vomiting due to motion sickness; settings: crossover study; cited from earlier work

T1 sequence (Q5DUB1 whole entry): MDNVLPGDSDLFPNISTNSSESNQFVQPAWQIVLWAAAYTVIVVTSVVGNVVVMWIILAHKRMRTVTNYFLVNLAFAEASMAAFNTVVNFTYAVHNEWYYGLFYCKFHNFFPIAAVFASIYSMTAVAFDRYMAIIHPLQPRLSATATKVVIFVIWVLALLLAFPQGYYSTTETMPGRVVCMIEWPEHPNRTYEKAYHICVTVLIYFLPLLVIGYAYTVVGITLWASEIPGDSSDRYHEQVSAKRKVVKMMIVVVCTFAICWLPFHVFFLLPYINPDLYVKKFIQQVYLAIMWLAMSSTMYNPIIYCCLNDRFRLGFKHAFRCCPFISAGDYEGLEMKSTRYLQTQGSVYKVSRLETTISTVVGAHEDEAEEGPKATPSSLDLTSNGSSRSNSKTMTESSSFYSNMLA

Structure (SMILES) | Total No. Emetic Episodes [1] | time after administration up to which foot-tapping behavior is inhibited [2] | dogs in which occurrence of vomiting was reduced as compared to placebo [3]
C[C@@H](O[C@H]1OCCN(Cc2n[nH]c(=O)[nH]2)[C@H]1c1ccc(F)cc1)c1cc(C(F)(F)F)cc(C(F)(F)F)c1 [Aprepitant, reference compound] | 1** | up to 24 hours | –
COc1ccc(C(C)(C)C)cc1CN[C@H]1C2CCN(CC2)[C@H]1C(c1ccccc1)c1ccccc1 [Maropitant] | – | – | over 75%
